{
  "source": "ChEMBL document CHEMBL1201862",
  "about": "“PubChem BioAssay data set” (2004)",
  "key": {"[1]": {"molecular_target": "Cystic fibrosis transmembrane conductance regulator/Golgi-associated PDZ and coiled-coil motif-containing protein (Homo sapiens, UniProt P13569+Q9HD26)", "sequence (P13569 whole entry, other chains not shown)": "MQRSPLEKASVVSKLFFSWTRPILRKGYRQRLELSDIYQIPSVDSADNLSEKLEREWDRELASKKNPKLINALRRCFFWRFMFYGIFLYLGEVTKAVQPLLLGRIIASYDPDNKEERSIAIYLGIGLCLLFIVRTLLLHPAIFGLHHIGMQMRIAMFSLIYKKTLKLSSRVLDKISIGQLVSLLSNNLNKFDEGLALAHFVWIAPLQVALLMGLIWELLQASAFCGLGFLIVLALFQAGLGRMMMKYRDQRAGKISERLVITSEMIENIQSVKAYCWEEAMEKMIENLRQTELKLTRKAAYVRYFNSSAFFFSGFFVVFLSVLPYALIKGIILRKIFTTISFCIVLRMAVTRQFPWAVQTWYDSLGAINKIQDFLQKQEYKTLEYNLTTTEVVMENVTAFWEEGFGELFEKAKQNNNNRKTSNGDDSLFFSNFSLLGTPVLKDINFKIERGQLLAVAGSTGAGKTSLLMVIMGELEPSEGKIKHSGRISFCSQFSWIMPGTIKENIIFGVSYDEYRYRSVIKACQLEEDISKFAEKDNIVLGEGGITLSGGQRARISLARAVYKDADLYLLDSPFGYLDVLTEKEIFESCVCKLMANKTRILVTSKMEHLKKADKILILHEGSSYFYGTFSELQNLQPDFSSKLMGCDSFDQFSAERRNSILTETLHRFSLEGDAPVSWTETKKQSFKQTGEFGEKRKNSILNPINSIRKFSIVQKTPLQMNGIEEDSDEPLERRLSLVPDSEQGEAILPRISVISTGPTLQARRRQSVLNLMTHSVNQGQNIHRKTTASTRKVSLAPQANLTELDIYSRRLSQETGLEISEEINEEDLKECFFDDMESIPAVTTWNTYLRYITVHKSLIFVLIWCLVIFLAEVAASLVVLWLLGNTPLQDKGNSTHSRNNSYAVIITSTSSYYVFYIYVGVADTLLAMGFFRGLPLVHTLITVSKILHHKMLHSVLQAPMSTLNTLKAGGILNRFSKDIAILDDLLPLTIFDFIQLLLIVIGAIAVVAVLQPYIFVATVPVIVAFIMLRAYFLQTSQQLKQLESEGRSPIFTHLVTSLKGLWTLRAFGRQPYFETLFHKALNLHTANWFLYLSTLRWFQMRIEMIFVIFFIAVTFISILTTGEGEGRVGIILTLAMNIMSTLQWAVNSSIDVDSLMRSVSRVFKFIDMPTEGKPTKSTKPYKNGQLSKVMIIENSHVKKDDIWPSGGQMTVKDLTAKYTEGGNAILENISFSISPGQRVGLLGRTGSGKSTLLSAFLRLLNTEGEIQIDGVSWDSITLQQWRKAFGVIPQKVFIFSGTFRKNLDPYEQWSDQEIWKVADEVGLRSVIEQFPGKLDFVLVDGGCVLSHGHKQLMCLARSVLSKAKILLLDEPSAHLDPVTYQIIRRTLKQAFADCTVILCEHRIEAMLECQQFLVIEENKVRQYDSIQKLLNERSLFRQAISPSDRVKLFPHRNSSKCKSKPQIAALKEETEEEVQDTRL", "assay": "potency against CAL PDZ-peptide interaction – biochemical, fluorescence polarization, Cerulean-tagged CAL PDZ, cherry-picks, dose response (AID 504773)"}, "[2]": {"molecular_target": "Eukaryotic translation initiation factor 4E (Mus musculus, UniProt P63073)", "sequence (P63073 whole entry)": "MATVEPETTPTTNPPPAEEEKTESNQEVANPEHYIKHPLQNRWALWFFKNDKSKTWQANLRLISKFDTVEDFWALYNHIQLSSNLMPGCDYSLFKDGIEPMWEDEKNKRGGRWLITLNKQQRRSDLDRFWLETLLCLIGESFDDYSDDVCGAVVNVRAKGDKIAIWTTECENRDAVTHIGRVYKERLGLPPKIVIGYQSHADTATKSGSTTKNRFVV", "assay": "blockers of eIF4G binding by eIF4E – biochemical, TR-FRET, dose response (AID 855);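 also: potency for disrupting eIF4E binding to eIF4GI seen as loss of FRET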", "type": "functional"}, "Hexokinase-1": {"molecular_target": "T1, Hexokinase-1 (Homo sapiens, UniProt P19367)", "T1 sequence (P19367 whole entry)": "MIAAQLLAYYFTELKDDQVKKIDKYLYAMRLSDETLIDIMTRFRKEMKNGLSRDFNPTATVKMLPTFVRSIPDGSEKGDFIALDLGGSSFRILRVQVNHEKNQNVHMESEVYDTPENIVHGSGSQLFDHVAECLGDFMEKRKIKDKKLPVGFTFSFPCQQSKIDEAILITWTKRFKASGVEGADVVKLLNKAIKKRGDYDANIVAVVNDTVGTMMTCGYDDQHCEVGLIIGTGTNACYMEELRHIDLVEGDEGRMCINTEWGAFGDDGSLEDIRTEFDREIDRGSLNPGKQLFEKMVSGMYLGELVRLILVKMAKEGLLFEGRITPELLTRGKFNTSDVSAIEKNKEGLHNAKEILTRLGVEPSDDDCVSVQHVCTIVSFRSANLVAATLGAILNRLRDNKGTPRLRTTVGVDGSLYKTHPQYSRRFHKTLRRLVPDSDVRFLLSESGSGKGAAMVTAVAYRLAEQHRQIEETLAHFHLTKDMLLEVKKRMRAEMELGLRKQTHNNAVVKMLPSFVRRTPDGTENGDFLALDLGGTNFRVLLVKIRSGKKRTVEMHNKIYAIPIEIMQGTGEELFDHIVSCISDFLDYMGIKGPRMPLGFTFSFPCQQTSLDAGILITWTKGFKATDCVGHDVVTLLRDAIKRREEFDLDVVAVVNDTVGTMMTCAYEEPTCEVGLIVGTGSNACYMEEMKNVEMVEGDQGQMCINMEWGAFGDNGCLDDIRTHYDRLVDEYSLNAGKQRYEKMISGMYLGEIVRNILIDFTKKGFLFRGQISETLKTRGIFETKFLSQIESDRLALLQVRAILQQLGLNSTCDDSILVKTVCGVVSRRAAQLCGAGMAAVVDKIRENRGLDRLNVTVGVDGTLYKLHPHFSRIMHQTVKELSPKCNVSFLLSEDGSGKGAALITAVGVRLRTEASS", "assay": "SAR analysis of small molecule inhibitors of hexokinase domain containing I (HKDC1) in the hexokinase 1 selectivity assay. [Related pubchem assays (depositor defined):AID493160, AID493190]", "type": "functional"}, "INS1": {"test_system": "INS1", "assay": "INS-1E survival protection against cytokine death – cell-based, luminescence, retest, dose response (AID 449756);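 also: cell death triggered by IL-1 beta plus TNF-alpha plus IFN-gamma mixture; protective hits raise ATP signal compared with cytokine alone wells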", "type": "functional", "conditions": "Rattus norvegicus"}, "[3]": {"molecular_target": "Heat shock protein HSP 90-alpha (Homo sapiens, UniProt P07900)", "assay": "Luminescence-based dose response biochemical high throughput screening assay for inhibitors of the Heat Shock Protein 90 (HSP90). [Related pubchem assays: 1831 (Summary AID.), 1846 (Confirmation screen.), 1789 (Primary screen.)]"}, "Nonstructural protein 1": {"molecular_target": "Nonstructural protein 1 (Influenza A virus, UniProt Q194T2)", "sequence (Q194T2 whole entry)": "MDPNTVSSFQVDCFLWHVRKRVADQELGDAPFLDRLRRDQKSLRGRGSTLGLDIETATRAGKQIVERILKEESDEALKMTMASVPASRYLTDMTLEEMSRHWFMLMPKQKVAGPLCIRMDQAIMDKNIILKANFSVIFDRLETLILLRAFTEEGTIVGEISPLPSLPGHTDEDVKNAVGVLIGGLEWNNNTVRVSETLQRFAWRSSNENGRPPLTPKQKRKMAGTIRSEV", "type": "functional, Influenza A virus (A/California/07/2009(H1N1))"}, "Keap1/Nrf2": {"molecular_target": "Keap1/Nrf2 (Homo sapiens, UniProt Q14145)", "sequence (Q16236 whole entry)": "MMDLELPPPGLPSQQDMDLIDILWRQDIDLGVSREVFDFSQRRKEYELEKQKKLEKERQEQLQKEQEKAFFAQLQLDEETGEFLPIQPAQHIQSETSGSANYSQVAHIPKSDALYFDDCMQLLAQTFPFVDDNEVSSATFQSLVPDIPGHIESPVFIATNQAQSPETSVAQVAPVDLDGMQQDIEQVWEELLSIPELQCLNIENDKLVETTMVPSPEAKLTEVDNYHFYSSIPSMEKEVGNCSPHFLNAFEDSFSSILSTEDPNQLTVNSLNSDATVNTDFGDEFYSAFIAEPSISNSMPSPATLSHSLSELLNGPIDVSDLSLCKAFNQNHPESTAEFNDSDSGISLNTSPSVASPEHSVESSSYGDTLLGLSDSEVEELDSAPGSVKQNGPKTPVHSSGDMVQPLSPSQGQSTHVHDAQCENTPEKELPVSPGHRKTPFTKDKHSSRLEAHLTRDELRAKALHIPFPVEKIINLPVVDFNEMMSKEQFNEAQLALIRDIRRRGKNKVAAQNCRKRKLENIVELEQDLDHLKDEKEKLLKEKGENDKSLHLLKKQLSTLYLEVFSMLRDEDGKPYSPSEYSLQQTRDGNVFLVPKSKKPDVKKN", "sequence (Q14145 whole entry)": "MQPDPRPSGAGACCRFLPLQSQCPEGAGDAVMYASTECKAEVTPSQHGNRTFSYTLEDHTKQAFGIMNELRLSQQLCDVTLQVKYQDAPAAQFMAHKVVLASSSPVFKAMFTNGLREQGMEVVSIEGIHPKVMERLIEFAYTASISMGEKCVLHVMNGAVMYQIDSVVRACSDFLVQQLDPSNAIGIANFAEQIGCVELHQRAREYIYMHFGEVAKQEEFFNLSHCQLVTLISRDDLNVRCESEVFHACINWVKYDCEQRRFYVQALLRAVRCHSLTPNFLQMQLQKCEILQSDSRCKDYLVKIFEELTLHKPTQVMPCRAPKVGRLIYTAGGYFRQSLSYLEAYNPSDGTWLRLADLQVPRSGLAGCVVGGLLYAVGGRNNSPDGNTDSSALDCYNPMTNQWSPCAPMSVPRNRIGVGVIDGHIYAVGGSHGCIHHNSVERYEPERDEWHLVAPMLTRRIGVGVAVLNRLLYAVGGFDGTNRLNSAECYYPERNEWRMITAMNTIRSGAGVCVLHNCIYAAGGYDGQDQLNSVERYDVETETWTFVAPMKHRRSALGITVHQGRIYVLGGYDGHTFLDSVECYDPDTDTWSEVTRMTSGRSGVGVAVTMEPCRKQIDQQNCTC", "assay": "disruptors of Keap1 binding to Nrf2 peptide – biochemical, fluorescence polarization, cherry-picked samples, dose response (AID 588683)"}, "[4]": {"molecular_target": "T2, Apoptotic protease-activating factor 1 (Homo sapiens, UniProt O14727)", "T2 sequence (O14727 whole entry)": "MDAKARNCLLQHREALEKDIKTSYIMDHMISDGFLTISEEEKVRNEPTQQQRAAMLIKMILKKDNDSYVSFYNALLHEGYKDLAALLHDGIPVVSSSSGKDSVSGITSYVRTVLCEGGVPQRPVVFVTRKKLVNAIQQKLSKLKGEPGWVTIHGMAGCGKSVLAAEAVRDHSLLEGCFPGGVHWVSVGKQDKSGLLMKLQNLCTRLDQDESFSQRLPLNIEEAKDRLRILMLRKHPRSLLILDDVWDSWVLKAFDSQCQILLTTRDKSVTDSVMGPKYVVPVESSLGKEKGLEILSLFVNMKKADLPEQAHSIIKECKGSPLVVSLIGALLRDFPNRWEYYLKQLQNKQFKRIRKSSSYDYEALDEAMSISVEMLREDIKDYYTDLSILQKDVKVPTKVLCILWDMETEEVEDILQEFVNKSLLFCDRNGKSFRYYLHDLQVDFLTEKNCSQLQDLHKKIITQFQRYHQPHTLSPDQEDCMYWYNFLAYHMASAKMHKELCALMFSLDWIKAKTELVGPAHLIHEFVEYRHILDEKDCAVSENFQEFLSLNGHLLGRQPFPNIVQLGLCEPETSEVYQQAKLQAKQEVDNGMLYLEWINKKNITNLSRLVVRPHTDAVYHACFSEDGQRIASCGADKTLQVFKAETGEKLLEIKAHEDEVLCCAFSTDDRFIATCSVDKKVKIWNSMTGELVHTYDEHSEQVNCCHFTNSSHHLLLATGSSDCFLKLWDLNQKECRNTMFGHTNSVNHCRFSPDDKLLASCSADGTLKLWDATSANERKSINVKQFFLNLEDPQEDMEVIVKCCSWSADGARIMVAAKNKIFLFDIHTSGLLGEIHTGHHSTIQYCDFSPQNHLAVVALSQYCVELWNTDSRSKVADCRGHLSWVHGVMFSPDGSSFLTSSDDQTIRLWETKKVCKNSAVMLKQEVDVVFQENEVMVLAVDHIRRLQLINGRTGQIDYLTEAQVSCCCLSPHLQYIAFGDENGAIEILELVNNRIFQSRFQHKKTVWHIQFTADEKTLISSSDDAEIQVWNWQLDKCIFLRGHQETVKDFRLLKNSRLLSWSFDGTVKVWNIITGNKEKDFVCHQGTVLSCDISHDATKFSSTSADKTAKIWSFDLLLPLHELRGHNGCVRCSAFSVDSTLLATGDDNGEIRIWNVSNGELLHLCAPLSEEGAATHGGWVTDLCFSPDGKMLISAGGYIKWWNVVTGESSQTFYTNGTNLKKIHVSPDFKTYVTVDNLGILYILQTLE", "type": "functional"}, "Beta-arrestin-1": {"molecular_target": "Beta-arrestin-1 (Homo sapiens, UniProt P49407)", "sequence (P49407 whole entry)": "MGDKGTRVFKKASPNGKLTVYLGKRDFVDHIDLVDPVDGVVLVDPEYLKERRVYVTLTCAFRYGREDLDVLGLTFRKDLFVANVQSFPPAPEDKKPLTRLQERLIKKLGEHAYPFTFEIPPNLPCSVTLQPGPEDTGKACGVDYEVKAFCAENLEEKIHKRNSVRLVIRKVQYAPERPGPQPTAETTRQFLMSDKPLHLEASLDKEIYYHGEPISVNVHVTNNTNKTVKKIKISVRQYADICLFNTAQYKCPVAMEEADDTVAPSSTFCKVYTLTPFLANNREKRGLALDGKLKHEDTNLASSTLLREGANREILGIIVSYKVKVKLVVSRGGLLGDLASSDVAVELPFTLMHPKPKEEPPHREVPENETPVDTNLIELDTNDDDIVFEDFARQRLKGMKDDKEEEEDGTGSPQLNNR", "assay": "beta-arrestin/AP2 interaction blockers, potency – biochemical, cherry pick 1, beta2-adaptin appendage, flow cytometry, dose response (AID 588783)", "type": "functional"}},
  "note": "Activity calls are given as the source filed them.",
  "data": [
    {"compound": "O=c1c2ccccc2nc(/C=C/c2cccnc2)n1Cc1ccccc1", "values": [
      {"measurement": "AC50", "setting": "[1]", "value": "23.5 µM (active)"},
      {"measurement": "IC50", "setting": "[2]", "value": "5.77 µM (active)"},
      {"measurement": "IC50", "setting": "Hexokinase-1", "value": "> 80 µM (inactive)"}
    ]},
    {"compound": "COC(=O)c1ccccc1NC1=C/C(=N\\S(=O)(=O)c2ccc(C(=O)O)cc2)c2ccccc2C1=O", "values": [
      {"measurement": "AC50", "setting": "INS1", "value": "3.34 µM (active)"},
      {"measurement": "IC50", "setting": "[3]", "value": "1.26 µM (active)"},
      {"measurement": "IC50", "setting": "Nonstructural protein 1", "value": "31.8 µM (active)"},
      {"measurement": "AC50", "setting": "Keap1/Nrf2", "value": "> 52 µM (inactive)"},
      {"measurement": "IC50", "setting": "[4]", "value": "7.19 µM (active)"}
    ]},
    {"compound": "NC(=O)C1CCN(C2=C(Cl)C(=O)c3ccccc3C2=O)CC1", "values": [
      {"measurement": "IC50", "setting": "Beta-arrestin-1", "value": "22.2 µM (inactive)"}
    ]}
  ]
}
